{"source": "patent US9309537B2", "about": "“Chimeric rat produced using rat embryonic stem cells in the presence of an ES cell differentiation suppressant” (National Cancer Center, priority 2009, dated 2016)", "test_system": "rat ES cells", "experiment": "Culture of established rat ES cells with PAC factor or Y factor alone (colony morphology, alkaline phosphatase)", "format": "cell-based", "settings": "ES cell culture medium on MEF"}
{"smiles": "C[C@@H](N)[C@H]1CC[C@H](C(=O)Nc2ccncc2)CC1", "note": "[Y, Y-27632]", "values": [{"measurement": "alkaline phosphatase activity", "value": "did not exhibit alkaline phosphatase activity"}, {"measurement": "undifferentiated state and colony morphology of established rat ES cells", "value": "unable to maintain the undifferentiation state"}]}
